The values that follow come from patent US20140100216A1, “STIMULATORS OF INCRETIN HORMONES SECRETION, METHOD FOR PREPARATION AND USE THEREOF” (priority 2011, published 2014).

For experiment [1], the target named is T1, human TGR5 (hTGR5) receptors (Homo sapiens, UniProt Q8TDU6).
T1 construct: expressed in transfected cells; host or cells: HEK-293
T1 sequence (Q8TDU6 1-330): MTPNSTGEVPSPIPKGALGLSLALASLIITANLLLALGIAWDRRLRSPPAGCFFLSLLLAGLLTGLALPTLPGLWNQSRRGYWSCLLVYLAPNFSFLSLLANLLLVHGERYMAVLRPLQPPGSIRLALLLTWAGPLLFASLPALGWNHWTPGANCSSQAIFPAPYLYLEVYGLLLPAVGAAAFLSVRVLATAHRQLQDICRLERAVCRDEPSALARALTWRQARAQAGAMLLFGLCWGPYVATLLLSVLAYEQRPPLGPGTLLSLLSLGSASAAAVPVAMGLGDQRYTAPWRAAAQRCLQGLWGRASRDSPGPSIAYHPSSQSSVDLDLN
Nature of the experiment: Agonistic activity towards TGR5 receptors, increase of intracellular cAMP in HEK-293 cells. It counts as cell-based. The following applies: HEK-293 cells expressing hTGR5, read-out: Activity (agonistic activity, EC50 class). Here is the method:
Screening of compounds of the general formula 1 was carried out in experiments on cells of HEK-293 line, in which human TGR5 (hTGR5) receptors were expressed. Agonistic activity of compounds was estimated by increasing of intracellular cAMP concentration.

Experiment [2] deals with diabesity mice of db/db line. Nature of the experiment: Influence of rectal administration of bile acid GDC on blood glucose level. The experiment is classed as in vivo. The conditions noted are these: male db/db mice. Here is the method: The influence of rectal administration of glycodeoxycholic acid (GDC) on glucose level in blood was studied at diabesity mice of db/db line. Glucose level at male db/db mice (39.5 g) was measured 24 hs before and at the moment of rectal administration, and then in 1, 2, 3, 4, 5, 6, and 24 hs afterwards. […] The gel was prepared on the base of methyl cellulose water solution (1%) and Tween-80 (2%). GDC BA administration in both doses effectively and statistically valid reduced glucose concentration in plasma of diabesity mice of db/db line (on 24%—at 50 mmol and on 20% at 5 mmol).

Experiment [3] has as its system diabesity mice of db/db line. Nature of the experiment: Influence of rectal BA administration on weight change at diabesity. It counts as in vivo. The conditions noted are these: GDC 5 and 50 mmol gel rectally + Sitagliptin 30 mg/kg peroral, weighed 2 days after administration. The method, then: Influence of rectal administration of glycodeoxycholic acid (GDC) on weight change of mice of db/db line at diabesity was investigated. […] The gel was prepared on the base of methyl cellulose water solution (1%) and Tween-80 (2%). The animals were weighted 2 days before the experiment, at the moment of administration and 2 days after administration of compositions.

As usually defined, the pEC50 is the negative decadic logarithm of the EC50, by convention in mol/L.

The structures appear in SMILES notation. pEC50: −log10 of the molar value.

`Cc1cccc(-c2ccccc2CN2C(=O)COc3ccccc3C2C(=O)NC(C)(C)C)c1` (stereo not drawn) [Compound 97, 4-[2-(3-methylphenyl)benzyl]-3-oxo-2,3,4,5-tetrahydrobenzo[f][1,4]oxazepine-5-carboxylic acid tert-butylamide]: the pEC50 in experiment [1] was < 5.00.

As for `N[C@@H](CC(=O)N1CCn2c(nnc2C(F)(F)F)C1)Cc1cc(F)c(F)cc1F` [Sitagliptin, reference compound], the “lowering of glucose level in blood plasma” value in experiment [2] (Sitagliptin alone (vehicle gel + Sitagliptin 30 mg/kg)) is 5-10%.

On to `O=C(NC1CCCCC1)C1c2cc(C(F)(F)F)ccc2OCCN1Cc1cccc(-c2ccccc2)c1` (stereo not drawn) [Compound 15, 4-(3-phenylbenzyl)-7-trifluoromethyl-2,3,4,5-tetrahydrobenzo[f][1,4]oxazepine-5-carboxylic acid cyclohexylamide], for which the pEC50 in experiment [1] is > 6.00.

As to `CC(C)(C)NC(=O)C1c2ccccc2OCC(=O)N1Cc1ccccc1-c1ccncc1` (stereo not drawn) [Compound 90, 4-[2-(pyridin-4-yl)benzyl]-3-oxo-2,3,4,5-tetrahydrobenzo[f][1,4]oxazepine-5-carboxylic acid tert-butylamide], the negative logarithm of the EC50 (pEC50) in experiment [1] was < 5.00.

Consider `O=C(NC1CCCC1)C1c2cc(C(F)(F)F)ccc2OCC(=O)N1Cc1cccc(-c2ccccc2)c1` (stereo not drawn) [Compound 81, 4-(3-phenylbenzyl)-3-oxo-7-trifluoromethyl-2,3,4,5-tetrahydrobenzo[f][1,4]oxazepine-5-carboxylic acid cyclopentylamide], for which the negative logarithm of the EC50 (pEC50) in experiment [1] was < 5.00.

On to `CC(CCC(=O)NCC(=O)O)C1CCC2C3CCC4CC(O)CCC4(C)C3CC(O)C12C` (stereo not drawn) [GDC, glycodeoxycholic acid], for which the “reduction of glucose concentration in plasma” value was 20% in experiment [2] (GDC 5 mmol gel rectally + Sitagliptin 30 mg/kg perorally 15 min before) and 24% in experiment [2] (GDC 50 mmol gel rectally + Sitagliptin 30 mg/kg perorally 15 min before). Also, in experiment [3], the “weight change of animals” value was “effectively and statistically-valid reduced weights of experimental animals”.

Take `O=C(NC1CCCC1)C1c2cc(C(F)(F)F)ccc2OCCN1Cc1cccc(-c2ccccc2)c1` (stereo not drawn) [Compound 14, 4-(3-pheylbenzyl)-7-trifluoromethyl-2,3,4,5-tetrahydrobenzo[f][1,4]oxazepine-5-carboxylic acid cyclopentylamide]: in experiment [1], the negative-log EC50 (pEC50) is < 5.00.

For `CC(C)(C)NC(=O)C1c2cc(F)ccc2OCCN1Cc1ccccc1-c1ccncc1` (stereo not drawn) [Compound 18, 4-[2-(pyridin-4-yl)benzyl]-7-fluoro-2,3,4,5-tetrahydrobenzo[f][1,4]oxazepine-5-carboxylic acid tert-butylamide], the negative-log EC50 (pEC50) in experiment [1] is 5.00 to 6.00.

In the case of `Cc1ccc(-c2ccccc2CN2C(=O)COc3ccccc3C2C(=O)NC(C)(C)C)cc1` (stereo not drawn) [Compound 96, 4-[2-(4-methylphenyl)benzyl]-3-oxo-2,3,4,5-tetrahydrobenzo[f][1,4]oxazepine-5-carboxylic acid tert-butylamide], the negative-log EC50 (pEC50) in experiment [1] was 5.00 to 6.00.

For the compound `CC(C)(C)NC(=O)C1c2cc(F)ccc2OCCN1Cc1ccccc1-c1ccc(F)cc1` (stereo not drawn) [Compound 50, 4-[2-(4-fluorophenyl)benzyl]-7-fluoro-2,3,4,5-tetrahydrobenzo[f][1,4]oxazepine-5-carboxylic acid tert-butylamide], the pEC50 in experiment [1] was > 6.00.
